Earlier results in publication PMC12497738, “Linear and conformational epitopes of vicilin-buried peptides as a model for improved nut allergy diagnostics” (Frontiers in Allergy, 2025).
Entries after “also recorded” stand apart in the source; their conditions may differ.

Test system: 6D12 monoclonal antibody
Settings: N-terminal helix, amino acids 21–36 of folded JR2.1; unpublished communications by Dr. Geoffrey Mueller (NIEHS); ref [16]
From the text: The mature vicilin domains in Figure 1A are labeled Jug r 2 and Ara h 1. A human monoclonal IgE antibody (6D12) was used to assess IgE binding to conformational epitopes in JR2LS and its three constituent VBPs using ciELISA (Figures 1B,C). […] With this method, a known immunodominant epitope of Ara h 2 was used to identify a cross-reactive, linear epitope in the JR2LS ([16]). The IgE binding regions identified in this study overlap or are near the previously described epitope containing areas, emphasizing the relevance of JR2LS VBPs as clinically relevant IgE targets ([16], [17]). Here, ELISA, linear peptide microarray, and computational analysis were used to ...

## CQEYCRRQGQGQRQQ [peptide 5, …, N-terminal helix, amino acids 21–36 of the folded JR2.1]
  Binding of 6D12 to peptide 5, in words: specific binding; also recorded: the primary target of 6D12
